Measurements: patent publication US20100093642A1, “NOVEL POLYPEPTIDES” (priority 2006, published 2010)
No end group written: not given here.

Legend:
[1] = system: human breast malignant carcinoma cell line MCF-7; assay type: cell-based; details: 24 h
Experimental: The cytotoxic effects of the peptides on different human tumour cells were measured using the MTT colorimetric assay (Mosmann, 1983). […] Dissolved MIT is converted to an insoluble purple formazan by cleavage of the tetrazolium ring by dehydrogenase enzymes. This water insoluble formazan can be solubilized using isopropanol or other solvents and the dissolved material is measured spectrophotometrically. The absorbance was measured as a function of concentration of converted dye. The conversion of the soluble dye to the insoluble purple formazan is utilized in assays for measurement of cell proliferation. […] We used this assay to measure the degree of cell death caused by the peptides. MCF-7 was maintained in EMEM, A2058 in DMEM and […]-29 in RPMI-1640 medium supplemented with 10% heat inactivated […] and 1% L-glutamine-L-alanine in a humidified atmosphere of 5% CO2 at 37° C. The human embryonic fibroblast cell line, MRC-5 (which is normal fibroblasts), was cultured as a monolayer in MEM medium, under the same conditions as described for the tumour cell lines. Cells to be used in the assay were grown to a minimum of 75% confluency, trypsinated and split to single cell suspension, counted and centrifuged at 1500 rpm for 10 min. The cell pellet was resuspended to a concentration of 2×10^5 cells/ml (HT-29) or 1×10^5 (MRC-5, MCF7 and A2058) in DMEM without FBS and L-glutamine-L-alanine (assay-medium). All cell lines were routinely tested for mycoplasma infection using a PCR-based mycoplasma detection kit (MycoSensor PCR Assay Kit, Stratagene), following the supplier's instructions. All cell lines were mycoplasma free. The cytotoxicity was measured using the MTT method (Mosmann, 1983), with minor modifications. Different human tumour cells (1-2×10^5) were applied in 96-well culture plates in a volume of 100 μl DMEM medium and incubated at 37° C. for 24 hours. The medium was removed and the cells were treated with 100 μl of peptide solution (concentrations ranging from 0 to 200 μg/ml), diluted in a) RPMI-1640 medium supplemented with 5% heat inactivated FBS, or b) RPMI-1640 medium without FBS. The plates were incubated at 37° C. for 24 hours. Cells treated with Triton X-100 (1%) was used as positive control (100% killing) whereas cells plus medium only were used as negative control. […] A volume of 70 μl of the supernatant was then removed and […] (0.04 M HCl in isopropanol) added to each well. The plate was placed on a shaker for 1 hour at room temperature and read spectrophotometrically at 590 nm in a microtiter plate reader (DTX880 Multimode Detector, Beckman Coulter).

[2] = system: TNF-α; assay: Inhibition of LPS induced TNF-α response in THP-1 cells (ELISA); assay type: cell-based, human; details: Ratio TC50 (THP-1)/EC50 (anti-TNFα)
Experimental: FIG. 12. Antiinnflammatory response measured as inhibition of tumor necrosis factor alpha (TNF-α) response in THP-1 cells after stimulation with LPS. THP-1 cells (1×10^6 cells/ml) were treated with P17 derivates in different concentrations for 1 hour, and subsequently stimulated with 100 ng/ml LPS for 6 hours. LPS was used as control for induction of TNF-α. (set as 100% response), RPMI media was used as negative (non-stimulated) control, and cycloheximide (Chx, 10 μg/ml) was used as a an inhibitory control for LPS induced TNF-α. The data presented are the average of two parallells. (A) The effect of the peptides P17 HC and P17 HC (1-20). (B) The effect of the peptides P17 HC (11-20) and P17 HC-Br.
The THP-1 cells (ATCC, TIB-202) were maintained in suspension in RPMI-1640 medium with 25 mM HEPES and 2 mM Glutamax I supplemented with 10% FBS (growth medium) in a humidified atmosphere of 5% CO2 at 37° C. Cells to be used in the assay were grown to a density of 8×10^5-1×10^6 cells/ml. The cells were centrifuged for 7 min at 200 g and the cell pellet was resuspended to a concentration of 10^6 cells/ml in RPMI-1640 with 10% FBS.
To allow examination of antiinflammatory effects of the peptides on basal and stimulated cytokine production, peptide-treated macrophages were cultured in the presence of LPS and the levels of TNF-α were measured. The primary screening was based on a mammalian cell line; the human THP-1 line. This line is of monocyte/macrophage origin and responds to various stimuli by increased production of cytokines, like TNF-α and the IL-1β, (Wang et al. 2000). To induce monocyte-macrophage differentiation, THP-1 cells were cultured in 96-well culture plates (10^6 cells/well) in a volume of 100 μl RPMI 1640 medium, containing 50 ng/ml PMA (which is known to induce the maturation of monocytes) and incubated in a humidified atmosphere of 5% CO2, at 37° C. for 48 hours. The medium was then removed and the cells were washed with PBS, added 100 μl fresh medium (without PMA) and incubated for another 24 hours. Medium was removed and the adherent macrophages were treated with 100 μl of peptide solution (concentrations ranging from 0 to 400 μg/ml), diluted in RPMI-1640 medium with 25 mM HEPES and 2 mM Glutamax I, but without […] (assay medium). After incubation at 37° C. for 1 hour, the cells were added LPS (0.1 μg/ml) and further incubated for 6 hours. […] TNF-α concentrations were quantified by the Human TNF-α ELISA MAX kit (BioLegend), according to the manufacturer's instructions. Duplicate readings for each standard, control and sample were recorded. The average absorbance for each set of standards, controls, and samples was calculated using a standard curve. Concentrations were determined by extrapolation on the standard curve.

[3] = system: S. aureus (ATCC 9144); assay type: cell-based, Staphylococcus aureus; details: ATCC 9144
Experimental: (§1) The antibacterial activities of the different peptides were determined by continuous monitoring of bacterial growth with a Bioscreen C microbiology reader (Labsystems Oy, Helsinki, Finland). The test was performed in 100-well flat-bottomed honeycomb plates, in which 50 μl of test fractions were incubated with 50 μl of a suspension of an actively growing culture of bacteria diluted in Mueller Hinton medium to a starting concentration of 3×10^4 cells per ml. […] [NT] 13032) and S. aureus (ATCC 9144), were chosen as test bacteria. […] Polymyxin B (Sigma, St.

[4] = system: E. coli (ATCC 25922); assay type: cell-based, Escherichia coli
Experimental: as §1

[5] = system: Saccharomyces cerevisiae; details: 48 h
Experimental: (§2) The various derivates of P17 (brominated and non-brominated) were tested for their ability to inhibit fungal growth of the yeast strains Saccaharomyces cerevisiae sp, Candida albicans (ATCC 10231) and Rodotorula sp., and the filamentous strains Botrytis cinerea 101, Penicillium rogveforti, and Fusarium sp. All strains, except C. albicans, were a gift from Prof. A. Tronsmo (The Norwegian University of Life Sciences, Ås, Norway). The fungi were cultivated on potato dextrose agar, supplemented with 2% glucose, at room temperature. Before antifungal testing, the fungi were dissolved in potato dextrose broth (Difco) at half-strength. Cell concentration was determined and adjusted after counting in a Bürker chamber. The filamentous fungi were filtered through a piece of cotton before counting. An aliquot of 50 μl of fungal spores (final concentration 2×10^5 spores per ml) were inoculated in microtiter plates (96 wells) along with 50 μl peptide solution. Peptides, dissolved in distilled water, were tested at final concentrations (two-fold dilutions) ranging from 50 μM to 0.1 μM. Cultures were grown in the dark (without shaking) and with a moist chamber at 25° C. (37° C. for C. albicans). Growth inhibition was determined microscopically after 48 h of incubation. MIC was determined as the lowest concentration of peptide resulting in 50% inhibition of visible growth.

[6] = system: Candida albicans (ATCC 10231); details: ATCC 10231, 48 h
Experimental: as §2

[7] = system: Botrytis cinerea 101; details: 48 h
Experimental: as §2

[8] = system: Pseudomonas aeruginosa; assay type: cell-based
Experimental: as §1

[9] = system: C. glutamicum (ATCC 13032); assay type: cell-based, Corynebacterium glutamicum
Experimental: as §1

For SHAVKSGIHA [P17 HC (11-20)], the IC50 [1] was 103 µM, the “Therapeutic index TC50/EC50” value [2] was greater than 2.2 and the “Minimal inhibitory concentration, S. aureus” value [3] was greater than 100 µM. The “Minimal inhibitory concentration, E. coli” value [4] was greater than 100 µM, the “Minimal inhibitory concentration (MIC), Saccharomyces cerevisiae” value [5] was greater than 100 µM and the “Minimal inhibitory concentration (MIC), Candida albicans” value [6] was greater than 100 µM. The “Minimal inhibitory concentration (MIC), Botrytis cinerea” value [7] was greater than 100 µM, the “Minimal inhibitory concentration, P. aeruginosa” value [8] was greater than 100 µM and the “Minimal inhibitory concentration, C. glutamicum” value [9] was greater than 100 µM.
